Tests used:
Type in all cases: in vivo
[1] = test system: barnyardgrass (Echinochloa crus-galli); assay: Test A preemergence soil spray, visual injury rating 0-100; details: 10 days
In short: (§1)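 Plants were grown in a loam soil-sand blend and treated with test chemical in a non-phytotoxic solvent mixture containing surfactant, either sprayed on soil preemergence or applied postemergence to 2-10 cm plants. After 10 days in a greenhouse, injury was scored visually against untreated controls, 0 meaning no effect and 100 complete control.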

[2] = test system: blackgrass (Alopecurus myosuroides); assay: as above; details: 10 days
In short: as §1

corn (Zea mays) [3] = assay: as above; details: 10 days
In short: as §1

[4] = test system: green foxtail (Setaria viridis); assay: as above; details: 10 days
In short: as §1

kochia (Bassia scoparia) [5] = assay: as above; details: 10 days
In short: as §1

[6] = test system: oat, wild (wild oat, Avena fatua); assay: as above; details: 10 days
In short: as §1

[7] = test system: palmer (palmer amaranth, palmer pigweed, Amaranthus palmeri); assay: as above; details: 10 days
In short: as §1

[8] = test system: ragweed (common ragweed, Ambrosia artemisiifolia); assay: as above; details: 10 days
In short: as §1

[9] = test system: ryegrass, Italian (italian ryegrass, Lolium multiflorum); assay: as above; details: 10 days
In short: as §1

soybean (Glycine max) [10] = assay: as above; details: 10 days
In short: as §1

[11] = test system: wheat (Triticum aestivum); assay: as above; details: 10 days
In short: as §1

[12] = test system: barnyardgrass (Echinochloa crus-galli); assay: Test A postemergence application, visual injury rating 0-100
In short: as §1

[13] = test system: blackgrass (Alopecurus myosuroides); assay: as above
In short: as §1

corn (Zea mays) [14] = assay: as above
In short: as §1

[15] = test system: galium (catchweed bedstraw, Galium aparine); assay: as above
In short: as §1

[16] = test system: green foxtail (Setaria viridis); assay: as above
In short: as §1

[17] = test system: horseweed (Erigeron canadensis); assay: as above
In short: as §1

kochia (Bassia scoparia) [18] = assay: as above
In short: as §1

[19] = test system: oat, wild (wild oat, Avena fatua); assay: as above
In short: as §1

[20] = test system: palmer (palmer amaranth, palmer pigweed, Amaranthus palmeri); assay: as above
In short: as §1

[21] = test system: ragweed (common ragweed, Ambrosia artemisiifolia); assay: as above
In short: as §1

[22] = test system: ryegrass, Italian (italian ryegrass, Lolium multiflorum); assay: as above
In short: as §1

soybean (Glycine max) [23] = assay: as above
In short: as §1

[24] = test system: wheat (Triticum aestivum); assay: as above
In short: as §1

[25] = test system: barnyardgrass (Echinochloa crusgalli); assay: Test B flooded paddy test, visual plant response rating 0-100; details: 250 g ai/ha, Flood, applied to paddy water, evaluated after 13 days
In short: (§2)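 Paddy-water application: test compounds went directly into water flooded 3 cm above the soil surface, with plants at 2 leaves. After a 13-day greenhouse period, responses were judged by eye relative to controls; a dash marks an untested entry.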

[26] = test system: ducksalad (Heteranthera limosa); assay: as above; details: 250 g ai/ha, Flood, applied to paddy water, evaluated after 13 days
In short: as §2

rice (Oryza sativa) = assay: as above; details: 250 g ai/ha, Flood, applied to paddy water, evaluated after 13 days
In short: as §2

[27] = test system: sedge, umbrella (small-flower umbrella sedge, Cyperus difformis); assay: as above; details: 250 g ai/ha, Flood, applied to paddy water, evaluated after 13 days
In short: as §2

[28] = 62 g ai/ha, 0 = no effect, 100 = complete control
[29] = 62 g ai/ha, postemergence, 10 days, 0 = no effect, 100 = complete control
[30] = Postemergence, 16 g ai/ha, greenhouse 10 days, 0 no effect, 100 complete control

With `COC(=O)C1CC(NC(=O)C2(C)CN(c3cc(F)cc(F)c3)C(=O)O2)C1` (stereo not shown) [Compound 130] the “Barnyardgrass plant response rating” value ([1]; 16 g ai/ha, 0 to 100 scale) was 0, the “Barnyardgrass plant response rating (0-100)” value [1, 28] was 70 and the “Blackgrass plant response rating” value ([2]; 16 g ai/ha, 0 to 100 scale) was 70. For the same compound, the “Blackgrass plant response rating (0-100)” value [2, 28] was 90, the “Corn plant response rating” value (corn (Zea mays) [3]; 16 g ai/ha, 0 to 100 scale) was 10 and the “Corn plant response rating (0-100)” value (corn (Zea mays) [3]; [28]) was 90. The “Foxtail, Green plant response rating” value ([4]; 16 g ai/ha, 0 to 100 scale) was 50, the “Foxtail, Green plant response rating (0-100)” value [4, 28] was 90 and the “Kochia plant response rating” value (kochia (Bassia scoparia) [5]; 16 g ai/ha, 0 to 100 scale) was 0. The “Kochia plant response rating (0-100)” value (kochia (Bassia scoparia) [5]; [28]) was 90, the “Oat, Wild plant response rating” value ([6]; 16 g ai/ha, 0 to 100 scale) was 50 and the “Oat, Wild plant response rating (0-100)” value [6, 28] was 90. For the same compound, the “Pigweed, Palmer plant response rating” value ([7]; 16 g ai/ha, 0 to 100 scale) was 10, the “Pigweed, Palmer plant response rating (0-100)” value [7, 28] was 30 and the “Ragweed plant response rating” value ([8]; 16 g ai/ha, 0 to 100 scale) was 0. The “Ragweed plant response rating (0-100)” value [8, 28] was 0, the “Ryegrass, Italian plant response rating” value ([9]; 16 g ai/ha, 0 to 100 scale) was 40 and the “Ryegrass, Italian plant response rating (0-100)” value [9, 28] was 90. For the same compound, the “Soybean plant response rating” value (soybean (Glycine max) [10]; 16 g ai/ha, 0 to 100 scale) was 0, the “Soybean plant response rating (0-100)” value (soybean (Glycine max) [10]; [28]) was 40 and the “Wheat plant response rating” value ([11]; 16 g ai/ha, 0 to 100 scale) was 90. The “Wheat plant response rating (0-100)” value [11, 28] was 90, the “Barnyardgrass plant response rating (0-100)” value [12, 29] was 80 and the “Barnyardgrass plant response rating (0 to 100 scale)” value [12, 30] was 70. For the same compound, the “Blackgrass plant response rating (0-100)” value [13, 29] was 90, the “Blackgrass plant response rating (0 to 100 scale)” value [13, 30] was 90 and the “Corn plant response rating (0-100)” value (corn (Zea mays) [14]; [29]) was 100. The “Corn plant response rating (0 to 100 scale)” value (corn (Zea mays) [14]; [30]) was 100, the “Galium plant response rating (0-100)” value [15, 29] was 90 and the “Galium plant response rating (0 to 100 scale)” value [15, 30] was 70. The “Foxtail, Green plant response rating (0-100)” value [16, 29] was 90, the “Foxtail, Green plant response rating (0 to 100 scale)” value [16, 30] was 90 and the “Horseweed plant response rating (0-100)” value [17, 29] was 30. The “Horseweed plant response rating (0 to 100 scale)” value [17, 30] was 10, the “Kochia plant response rating (0-100)” value (kochia (Bassia scoparia) [18]; [29]) was 90 and the “Kochia plant response rating (0 to 100 scale)” value (kochia (Bassia scoparia) [18]; [30]) was 80. For the same compound, the “Oat, Wild plant response rating (0-100)” value [19, 29] was 90, the “Oat, Wild plant response rating (0 to 100 scale)” value [19, 30] was 90 and the “Pigweed, Palmer plant response rating (0-100)” value [20, 29] was 90. For the same compound, the “Pigweed, Palmer plant response rating (0 to 100 scale)” value [20, 30] was 80, the “Ragweed plant response rating (0-100)” value [21, 29] was 30 and the “Ragweed plant response rating (0 to 100 scale)” value [21, 30] was 20. For the same compound, the “Ryegrass, Italian plant response rating (0-100)” value [22, 29] was 90, the “Ryegrass, Italian plant response rating (0 to 100 scale)” value [22, 30] was 70 and the “Soybean plant response rating (0-100)” value (soybean (Glycine max) [23]; [29]) was 70. The “Soybean plant response rating (0 to 100 scale)” value (soybean (Glycine max) [23]; [30]) was 60, the “Wheat plant response rating (0-100)” value [24, 29] was 90 and the “Wheat plant response rating (0 to 100 scale)” value [24, 30] was 90. The “Plant response rating, Barnyardgrass (0 to 100 scale, 0 is no effect and 100 is complete control)” value [25] was 80, the “Plant response rating, Ducksalad (0 to 100 scale, 0 is no effect and 100 is complete control)” value [26] was 100 and the “Plant response rating, Rice (0 to 100 scale, 0 is no effect and 100 is complete control)” value (rice (Oryza sativa)) was 60. The “Plant response rating, Sedge, Umbrella (0 to 100 scale, 0 is no effect and 100 is complete control)” value [27] was 90.
